Results taken from PMC5654082 (Malaria Journal, 2017).
Where a name gives a salt, the structure may show the parent alone.

Columns and labels:
[1] = set-up: method as in earlier work; settings: unchanged PG; cited from earlier work
[2] = co-administration of EFV; cited from earlier work
[3] = biological target: T1, human OCT2 (Homo sapiens, UniProt O15244); assay: Inhibition of OCT2-mediated ASP uptake in transduced HEK293 cells; type: cell-based; settings: 10 µM ASP, 10 min, 37 °C
T1 construct: host or cells: HEK293, baculovirus transduction (CMV promoter), transient
T1 sequence (O15244 1-555): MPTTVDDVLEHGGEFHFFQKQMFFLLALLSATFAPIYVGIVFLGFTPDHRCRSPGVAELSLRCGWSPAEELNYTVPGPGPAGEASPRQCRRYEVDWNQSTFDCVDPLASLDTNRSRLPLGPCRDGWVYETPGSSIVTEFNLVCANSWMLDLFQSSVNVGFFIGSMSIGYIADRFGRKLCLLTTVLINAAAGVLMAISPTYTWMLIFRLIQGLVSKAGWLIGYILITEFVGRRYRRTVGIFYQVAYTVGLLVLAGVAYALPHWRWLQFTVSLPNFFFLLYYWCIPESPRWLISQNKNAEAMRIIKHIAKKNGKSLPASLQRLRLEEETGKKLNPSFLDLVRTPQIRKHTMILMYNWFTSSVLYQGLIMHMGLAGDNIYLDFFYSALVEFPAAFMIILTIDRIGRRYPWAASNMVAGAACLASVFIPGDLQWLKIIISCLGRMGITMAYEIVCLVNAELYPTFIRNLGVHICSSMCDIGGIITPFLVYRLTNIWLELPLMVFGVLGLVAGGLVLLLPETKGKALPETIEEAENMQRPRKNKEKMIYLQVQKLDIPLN
Method: HEK293 cells were modified to transiently express (a combination of) human OCT1, OCT2, MATE1, MATE2-K, or eYFP. Briefly, cDNA of the respective genes was cloned downstream of a CMV promoter into a baculovirus, of which passage three was used to transduce HEK293 cells. These cells were seeded in poly-D-lysine coated 24- or 96-wells plates and grown in a 37 °C incubator at 5% CO2. […] After 24 h, cells were transduced with 30 µL virus (10 µL virus + 20 µL complete medium in case of 96-wells plates) or 2 × 15 µL virus for cells that required simultaneous expression of two transporters. Finally, 195 µL sodium butyrate (45 µL for 96-wells plates) was added to a final concentration of 2 mM to enhance protein expression.
AMO (10 mM), ASP (1 mM), CQ (10 mM), PQ (10 mM) and PG (10 mM) were dissolved in MilliQ water. ART (10 mM), ATO (10 mM), DHA (10 mM), LUM (10 mM), MQ (10 mM), NMQ (20 mM), PYR (10 mM), QN (10 mM) were dissolved in DMSO. All compound stocks were stored at − 20 °C. Inhibition of OCT1- or OCT2-mediated ASP uptake by anti-malarials was performed in poly-D-lysine coated 96-wells plates 2 or 3 days following HEK293 cell transduction. In short, cells were washed with 125 µL 37 °C HBSS containing 10 mM HEPES, pH 7.4. […] ASP transport was stopped by washing with 125 µL ice-cold HBSS-HEPES buffer supplemented with 0.5% BSA.
For each compound, a range of seven concentrations was used to determine the concentration at which ASP uptake was inhibited half maximally (IC50). At least three independent experiments (4 for QN) were performed for each drug in triplicate as described above. […] To generate the final dose–response inhibition curve per anti-malarial, percentage of uptake was averaged for each drug concentration per experiment and the resulting mean ± SEM corresponding to three or four independent experiments were plotted.

Q: With [H]/N=C(\N/C(=N/[H])Nc1ccc(Cl)cc1)NC(C)C [Proguanil, proguanil hydrochloride] as the compound, how does the “Excretion into the urine” value [1] read?
A: The value was < 40%.

Q: What about the “Increase of Cmax of PG by EFV” value [2] of the same compound?
A: Its value is 47%.

Q: What about the IC50 ([3]; seven concentrations) of the same compound?
A: The IC50 was 13 µM.

Q: What about the “Relative ASP uptake (OCT2-mediated)” value ([3]; 50 µM anti-malarial, relative to solvent control fixed at 100%) of the same compound?
A: The value was 19 ± 7%.
